Laboratory results: ChEMBL document CHEMBL3822392, “Design, synthesis and apoptosis inducing effect of novel (Z)-3-(3'-methoxy-4'-(2-amino-2-oxoethoxy)-benzylidene)indolin-2-ones as potential antitumour agents” (Eur J Med Chem, 2016)
Values belong to the molecule of their own block, whether it stands above or below them. Calls of active or inactive are those of the source. The calls are words filed in the database; no cut-off is given here.

How the values were obtained:
MDA-MB-231 = test: cells; conditions: Homo sapiens, MDA-MB-231, 48 h
Description: Cytotoxicity against human MDA-MB-231 cells after 48 hrs by MTT assay

[1] = Cytotoxicity against human RWPE1 cells after 48 hrs by MTT assay; assay type: cell-based; conditions: RWPE-1, 48 h
[2] = Cytotoxicity against human BT549 cells after 48 hrs by MTT assay; assay type: functional, cell-based; conditions: BT-549, 48 h
[3] = Cytotoxicity against human DU145 cells after 48 hrs by MTT assay; assay type: functional, cell-based; conditions: DU-145, 48 h
[4] = Cytotoxicity against human PC3 cells after 48 hrs by MTT assay; assay type: functional, cell-based; conditions: PC-3, 48 h
PC-3 [5] = test: Induction of apoptosis in human PC3 cells assessed as live cells at 2 uM after 24 hrs by Annexin V/FITC staining-based flow cytometric analysis (reference value: 85.7%); assay type: functional
[6] = Cytotoxicity against human PC3 cells assessed as cell viability at 4 uM after 48 hrs by trypan blue assay; assay type: functional; conditions: PC-3, 48 h, read-out: Activity
[7] = Cytotoxicity against human PC3 cells assessed as cell viability at 2 uM after 48 hrs by trypan blue assay; assay type: functional; conditions: PC-3, 48 h, read-out: Activity
PC-3 [8] = test: Induction of apoptosis in human PC3 cells assessed as late apoptotic cells at 4 uM after 24 hrs by Annexin V/FITC staining-based flow cytometric analysis (reference value: 4.3%); assay type: functional
PC-3 [9] = test: Induction of apoptosis in human PC3 cells assessed as late apoptotic cells at 1 uM after 24 hrs by Annexin V/FITC staining-based flow cytometric analysis (reference value: 4.3%); assay type: functional
[10] = Antimigratory activity in human PC3 cells at 1 uM after 24 hrs by wound healing assay (reference value: 43.4%); assay type: functional, PC-3
PC-3 [11] = test: Induction of apoptosis in human PC3 cells assessed as nuclear fragmentation after 24 hrs by Hoechst […] staining-based confocal fluorescence microscopic analysis; assay type: functional, cell-based
PC-3 [12] = test: Induction of apoptosis in human PC3 cells assessed as late apoptotic cells at 2 uM after 24 hrs by Annexin V/FITC staining-based flow cytometric analysis (reference value: 4.3%); assay type: functional
[13] = Cell cycle arrest in human PC3 cells assessed as accumulation at G0/G1 phase after 24 hrs by propidium iodide staining-based flow cytometry; assay type: functional; conditions: PC-3
PC-3 [14] = test: Antimigratory activity in human PC3 cells at 1 to 2 uM after 48 hrs by wound healing assay; assay type: functional, cell-based
PC-3 [15] = test: Induction of apoptosis in human PC3 cells assessed as necrotic cells at 2 uM after 24 hrs by Annexin V/FITC staining-based flow cytometric analysis (reference value: […]); assay type: functional
PC-3 [16] = test: Induction of apoptosis in human PC3 cells assessed as early apoptotic cells at 1 uM after 24 hrs by Annexin V/FITC staining-based flow cytometric analysis (reference value: 5.1%); assay type: functional
PC-3 [17] = test: Induction of apoptosis in human PC3 cells assessed as live cells at 1 uM after 24 hrs by Annexin V/FITC staining-based flow cytometric analysis (reference value: 85.7%); assay type: functional
[18] = Cell cycle arrest in human PC3 cells assessed as accumulation at G0/G1 phase at 2 uM after 24 hrs by propidium iodide staining-based flow cytometry (reference value: 71.7%); assay type: functional; conditions: PC-3
[19] = Cell cycle arrest in human PC3 cells assessed as accumulation at G0/G1 phase at 1 uM after 24 hrs by propidium iodide staining-based flow cytometry (reference value: 71.7%); assay type: functional; conditions: PC-3
[20] = Cell cycle arrest in human PC3 cells assessed as accumulation at S phase at 4 uM after 24 hrs by propidium iodide staining-based flow cytometry (reference value: 9.3%); assay type: functional; conditions: PC-3
[21] = Antimigratory activity in human PC3 cells at 4 uM after 24 hrs by wound healing assay (reference value: 43.4%); assay type: functional, PC-3
PC-3 [22] = test: Induction of apoptosis in human PC3 cells assessed as caspase 3 activation after 24 hrs by Western blot analysis; assay type: functional, cell-based
[23] = Cell cycle arrest in human PC3 cells assessed as accumulation at G2/M phase at 2 uM after 24 hrs by propidium iodide staining-based flow cytometry (reference value: 19.2%); assay type: functional; conditions: PC-3
PC-3 [24] = test: Induction of apoptosis in human PC3 cells assessed as chromatin condensation after 24 hrs by Hoechst […] staining-based confocal fluorescence microscopic analysis; assay type: functional, cell-based
PC-3 [25] = test: Induction of apoptosis in human PC3 cells after 24 hrs by Annexin V/FITC staining-based flow cytometric analysis; assay type: functional, cell-based
PC-3 [26] = test: Cytotoxicity against human PC3 cells assessed as cell detachment at 1 to 4 uM after 48 hrs by phase contrast microscopic analysis relative to vehicle control; assay type: functional, cell-based
PC-3 [27] = test: Induction of apoptosis in human PC3 cells assessed as live cells at 4 uM after 24 hrs by Annexin V/FITC staining-based flow cytometric analysis (reference value: 85.7%); assay type: functional
[28] = Disruption of mitochondrial membrane potential in human PC3 cells at 1 to 4 uM after 24 hrs by Rhodamine123 staining-based spectrofluorimetric analysis relative to control; assay type: functional, PC-3
[29] = Induction of apoptosis in human PC3 cells assessed as upregulation of Bax expression after 24 hrs by Western blot analysis; assay type: functional, cell-based; conditions: PC-3
PC-3 [30] = test: Induction of apoptosis in human PC3 cells assessed as early apoptotic cells at 2 uM after 24 hrs by Annexin V/FITC staining-based flow cytometric analysis (reference value: 5.1%); assay type: functional
PC-3 [31] = test: Induction of apoptosis in human PC3 cells assessed as downregulation of Bcl2 expression after 24 hrs by Western blot analysis; assay type: functional, cell-based
PC-3 [32] = test: Antimigratory activity in human PC3 cells after 24 to 48 hrs by assay; assay type: functional, cell-based
[33] = Cell cycle arrest in human PC3 cells assessed as accumulation at G2/M phase at 4 uM after 24 hrs by propidium iodide staining-based flow cytometry (reference value: 19.2%); assay type: functional; conditions: PC-3
PC-3 [34] = test: Induction of apoptosis in human PC3 cells assessed as necrotic cells at 1 uM after 24 hrs by Annexin V/FITC staining-based flow cytometric analysis (reference value: […]); assay type: functional
PC-3 [35] = test: Induction of apoptosis in human PC3 cells assessed as necrotic cells at 4 uM after 24 hrs by Annexin V/FITC staining-based flow cytometric analysis (reference value: […]); assay type: functional
[36] = Cell cycle arrest in human PC3 cells assessed as accumulation at S phase at 1 uM after 24 hrs by propidium iodide staining-based flow cytometry (reference value: 9.3%); assay type: functional; conditions: PC-3
PC-3 [37] = test: Induction of apoptosis in human PC3 cells assessed as early apoptotic cells at 4 uM after 24 hrs by Annexin V/FITC staining-based flow cytometric analysis (reference value: 5.1%); assay type: functional
PC-3 [38] = test: Disruption of mitochondrial membrane potential in human PC3 cells after 24 hrs by Rhodamine123 staining-based spectrofluorimetric analysis relative to control; assay type: functional, cell-based
PC-3 [39] = test: Cytotoxicity against human PC3 cells assessed as cell shrinkage at 1 to 4 uM after 48 hrs by phase contrast microscopic analysis relative to vehicle control; assay type: functional, cell-based
[40] = Cell cycle arrest in human PC3 cells assessed as accumulation at G0/G1 phase at 4 uM after 24 hrs by propidium iodide staining-based flow cytometry (reference value: 71.7%); assay type: functional; conditions: PC-3
[41] = Cell cycle arrest in human PC3 cells assessed as accumulation at G2/M phase at 1 uM after 24 hrs by propidium iodide staining-based flow cytometry (reference value: 19.2%); assay type: functional; conditions: PC-3
[42] = Antimigratory activity in human PC3 cells at 2 uM after 24 hrs by wound healing assay (reference value: 43.4%); assay type: functional, PC-3
PC-3 [43] = test: Antimigratory activity in human PC3 cells assessed as disruption of F-actin formation around nucleus at 1 to 4 uM after 12 hrs by rhodamine phalloidin/Hoechst […] staining-based confocal microscopic analysis; assay type: functional, cell-based
[44] = Cell cycle arrest in human PC3 cells assessed as accumulation at S phase at 2 uM after 24 hrs by propidium iodide staining-based flow cytometry (reference value: 9.3%); assay type: functional; conditions: PC-3
PC-3 [45] = test: Increase in intracellular Ca2+ level in human PC3 cells after 24 hrs by Fura-2/AM staining-based fluorescence microscopic analysis; assay type: functional, cell-based

IC50 (MDA-MB-231): 19.3 µM
Compound: COc1cc(/C=C2\C(=O)Nc3ccccc32)ccc1OCC(=O)N1CCCCC1
IC50 [1]: 78.1 µM | IC50 [2]: > 20 µM | IC50 [3]: 6.63 µM | IC50 [4]: 6.97 µM

IC50 (MDA-MB-231): 7.4 µM
Compound: CCN(CC)CCNC(=O)c1c(C)[nH]c(/C=C2\C(=O)Nc3ccc(F)cc32)c1C [SUNITINIB]
IC50 [1]: 23 µM | IC50 [2]: 15.5 µM | IC50 [3]: 16.4 µM | IC50 [4]: 19.6 µM

IC50 (MDA-MB-231): 6.35 µM
Compound: COc1cc(/C=C2\C(=O)Nc3ccccc32)ccc1OCC(=O)N1CCc2ccccc21
Activity (PC-3 [5]): 70.9% | viability at 4 µM [6]: 45% | viability at 2 µM [7]: 53% | Activity (PC-3 [8]): 22.4% | Activity (PC-3 [9]): 8.3% | Activity [10]: 37.3% | Activity (PC-3 [11]): Dose-dependent effect | Activity (PC-3 [12]): 10.2% | Activity [13]: Dose-dependent effect | IC50 [1]: > 100 µM | Activity (PC-3 [14]): Active | Activity (PC-3 [15]): 1.3% | Activity (PC-3 [16]): 13.6% | Activity (PC-3 [17]): 77.7% | Activity [18]: 20.8% | Activity [19]: 39.1% | Activity [20]: 24.2% | Activity [21]: 7.3% | Activity (PC-3 [22]): Dose-dependent effect | Activity [23]: 49.8% | Activity (PC-3 [24]): Dose-dependent effect | Activity (PC-3 [25]): Dose-dependent effect | Activity (PC-3 [26]): Active | Activity (PC-3 [27]): 57.4% | IC50 [2]: 7.17 µM | Activity [28]: 19% | IC50 [3]: 1.94 µM | IC50 [4]: 1.89 µM | Activity [29]: Dose-dependent effect | Activity (PC-3 [30]): 17.6% | Activity (PC-3 [31]): Dose-dependent effect | Activity (PC-3 [32]): Dose-dependent effect | Activity [33]: 55.7% | Activity (PC-3 [34]): 0.4% | Activity (PC-3 [35]): 4.4% | Activity [36]: 18.5% | Activity (PC-3 [37]): 15.8% | Activity (PC-3 [38]): Dose-dependent effect | Activity (PC-3 [39]): Active | Activity [40]: 19.4% | Activity [41]: 41.6% | Activity [42]: 29.4% | Activity (PC-3 [43]): Active | Activity [44]: 27.6% | Activity (PC-3 [45]): Dose-dependent effect

IC50 (MDA-MB-231): 9.78 µM
Compound: COc1cc(/C=C2\C(=O)Nc3ccccc32)ccc1OCC(=O)N1CCOCC1
IC50 [1]: 81.8 µM | IC50 [2]: 8.87 µM | IC50 [3]: 5.75 µM | IC50 [4]: 5.97 µM

IC50 (MDA-MB-231): > 20 µM
Compound: COc1cc(/C=C2\C(=O)Nc3ccccc32)ccc1OCC(=O)N1CCCC1
IC50 [2]: > 20 µM | IC50 [3]: > 20 µM | IC50 [4]: > 20 µM

IC50 (MDA-MB-231): > 20 µM
Compound: COc1cc(/C=C2\C(=O)Nc3ccccc32)ccc1OCC(=O)N1CC(C)OC(C)C1 (centres undefined)
IC50 [2]: > 20 µM | IC50 [3]: > 20 µM | IC50 [4]: > 20 µM
